Test results published in patent US12221436B2, “Anthranilamides, their use as insecticide and processes for preparing the same” (PI INDUSTRIES LTD., priority 2018, dated 2025).

How the values were obtained:
Type in all cases: in vivo
Myzus persicae = test: Example E: Myzus persicae, leaf dip method (capsicum leaves); conditions: foliar, third instar nymphs, 72 h after release, dead and moribund combined, read-out: percent mortality
Description: (§1) Test solutions were prepared according to the procedure described herein below (500 PPM):
(§2) • 1. Eppendorf Vortex mixer (ThermoMixer C) and 1.5 mL Eppendorf tubes • 2. Beaker—100 mL • 3. Micro-pipette Reagents: • 1. Surfactant Solution • 2. De-mineralized (DM) Water Procedure: • 1. Weigh 10 mg of the compound of the present invention to be tested in an Eppendorf Tube. • 2. Add 200 mg of the Surfactant Solution into the tube. • 3. Fix the tube in Eppendorf Vortex mixer and start vortexing at 2000 rpm. • 4. Mix on Vortex mixer for 30 min. After 30 min, observe the sample over a microscope at 400× resolution. • 5. Add 1.0 mL DM water into the tube, close the cap, shake the tube thoroughly and transfer the contents, along with the beads, into a beaker. • 6. To rinse the tube, add another 1.0 mL of DM water into the tube, close the cap, shake well and transfer this into the same beaker. • 7. Repeat […] one more time so that the tube is rinsed well and all the compound of the present invention is transferred to the beaker. • 8. Add 16.8 mL of DM water into the beaker and stir well. • 9. Immediately use this sample for biological testing. • 10. Further dilutions can be prepared by taking appropriate quantity of the aliquot of Step 8, immediately after stirring, and diluting as per requirement. The sample solution must be well mixed just before biological testing.
Leaf dip method was used for screening, wherein the required quantity of the compounds were weighed and dissolved in the test solution into the tube and vortex at 2000 rpm with Zirconia beads for 90 min and for proper mixing, then mixed with 0.01% Triton-X solution to get the desired test concentration. Capsicum leaves were dipped in the solution for 10 seconds, shade dried for 20 min and then leaves were kept in glass units with petiole dipped in water. Known numbers of third instar nymphs were released and were kept in the plant growth chamber at a temperature of 25° C. and Relative Humidity of 70%. Observations on dead, moribund and live nymphs were recorded at 72 h after the release. Percent mortality was calculated by combining dead and moribund nymphs. The following compound numbers

Helicoverpa armigera = test: Example A: Helicoverpa armigera, diet incorporation method; conditions: third instar larvae, 96 h after release, dead and moribund combined, read-out: percent mortality
Description: as §1, §2
(§3) Diet incorporation method was used, in which the semi-synthetic diet was incorporated into the test solution when the temperature is approximately 50° C. in the bioassay containers and stirred thoroughly for properly mixing and then was allowed to cool for 30 min. The solidified diet was cut into equal pieces, and then each piece was transferred in one cell in Bio-assay trays. A single third instar starved larva was released into each of these cells of bioassay trays and the tray was covered with the lid. The bio-assay trays were kept under laboratory conditions at a temperature of 25° C. and Relative Humidity of 70%. Observations on dead, moribund and live larvae were recorded at 96 h after the release of larvae. Percent mortality was calculated by combining dead and moribund larvae. The following compound numbers

Spodoptera litura = test: Example B: Spodoptera litura, diet incorporation method; conditions: third instar larvae, 96 h after release, dead and moribund combined, read-out: percent mortality
Description: as §1, §2
as §3, with “which” for “which the”, “solutions” for “solution”

Plutella xylostella = test: whole plant or invertebrate; conditions: in Brassica oleracea, foliar, second instar larvae, 72 h after release, dead and moribund combined, read-out: percent mortality
Description: as §1, §2
Leaf dip method was used for screening, wherein the required quantity of the compounds were weighed and dissolved in the test solution into the tube and vortex at 2000 rpm with Zirconia beads for 90 min for proper mixing, then mixed with 0.01% Triton-X solution to get the desired test concentration. and Cabbage leaves were dipped in the solution for 10 seconds, shade dried for 20 min and then transferred to bioassay trays. Single second instar larvae were released into each cell and the tray was covered with lid. The bio-assay trays were kept under laboratory conditions at a temperature of 25° C. and Relative Humidity of 70%. Observations on dead, moribund and live larvae were recorded at 72 h after the release. Percent mortality was calculated by combining dead and moribund larvae. The following compound numbers

Row | SMILES | mortality at 300 ppm (Myzus persicae) [%] | mortality at 300 ppm (Helicoverpa armigera) [%] | mortality at 300 ppm (Spodoptera litura) [%] | mortality at 300 ppm (Plutella xylostella) [%]
1 | CC(C)(C)NC(=O)c1cc(Cl)cc(Br)c1NC(=O)c1cc(OC2CSC2)nn1-c1ncccc1Cl [Compound 45, N-(2-bromo-6-(tert-butylcarbamoyl)-4-chlorophenyl)-1-(3-chloropyridin-2-yl)-3-(thietan-3-yloxy)-1H-pyrazole-5-carboxamide] | > 50 | – | – | –
2 | Cc1cc2ccnn2c(C(=O)NCC2CC2)c1NC(=O)c1cc(N2CC(F)(F)C2)nn1-c1ncccc1Cl [Compound 78, 6-(1-(3-chloropyridin-2-yl)-3-(3,3-difluoroazetidin-1-yl)-1H-pyrazole-5-carboxamido)-N-(cyclopropylmethyl)-5-methylpyrazolo[1,5-a]pyridine-7-carboxamide] | – | > 70 | > 70 | > 70
3 | CNC(=O)c1c(NC(=O)c2cc(N3CC(F)(F)C3)nn2-c2ncccc2Cl)c(C)cc2ccnn12 [Compound 79, 6-(1-(3-chloropyridin-2-yl)-3-(3,3-difluoroazetidin-1-yl)-1H-pyrazole-5-carboxamido)-N,5-dimethylpyrazolo[1,5-a]pyridine-7-carboxamide] | – | > 70 | > 70 | > 70
4 | Cc1cc2ccnn2c(C(=O)NCC2CC2)c1NC(=O)c1cc(OC2CSC2)nn1-c1ncccc1Cl [Compound 80, 6-(1-(3-chloropyridin-2-yl)-3-(thietan-3-yloxy)-1H-pyrazole-5-carboxamido)-N-(cyclopropylmethyl)-5-methylpyrazolo[1,5-a]pyridine-7-carboxamide] | – | > 70 | > 70 | > 70
5 | CCNC(=O)c1c(NC(=O)c2cc(N3CC(F)(F)C3)nn2-c2ncccc2Cl)c(C)cc2ccnn12 [Compound 84, 6-(1-(3-chloropyridin-2-yl)-3-(3,3-difluoroazetidin-1-yl)-1H-pyrazole-5-carboxamido)-N-ethyl-5-methylpyrazolo[1,5-a]pyridine-7-carboxamide] | – | – | > 70 | –
6 | CONC(=O)c1c(NC(=O)c2cc(N3CC(F)(F)C3)nn2-c2ncccc2Cl)c(C)cc2ccnn12 [Compound 85, 6-(1-(3-chloropyridin-2-yl)-3-(3,3-difluoroazetidin-1-yl)-1H-pyrazole-5-carboxamido)-N-methoxy-5-methylpyrazolo[1,5-a]pyridine-7-carboxamide] | – | > 70 | – | > 70
7 | C=CCNC(=O)c1c(NC(=O)c2cc(N3CC(F)(F)C3)nn2-c2ncccc2Cl)c(C)cc2ccnn12 [Compound 87, N-allyl-6-(1-(3-chloropyridin-2-yl)-3-(3,3-difluoroazetidin-1-yl)-1H-pyrazole-5-carboxamido)-5-methylpyrazolo[1,5-a]pyridine-7-carboxamide] | – | – | > 70 | –
8 | CONC(=O)c1cc(Cl)cc(Br)c1NC(=O)c1cc(OC2CSC2)nn1-c1ncccc1Cl [Compound 91, N-(2-bromo-4-chloro-6-(methoxycarbamoyl)phenyl)-1-(3-chloropyridin-2-yl)-3-(thietan-3-yloxy)-1H-pyrazole-5-carboxamide] | > 50 | – | – | –
9 | C=CCNC(=O)c1cc(Cl)cc(Br)c1NC(=O)c1cc(OC2CSC2)nn1-c1ncccc1Cl [Compound 92, N-(2-(allylcarbamoyl)-6-bromo-4-chlorophenyl)-1-(3-chloropyridin-2-yl)-3-(thietan-3-yloxy)-1H-pyrazole-5-carboxamide] | > 50 | – | – | –
10 | C=CCNC(=O)c1cc(Cl)cc(C)c1NC(=O)c1cc(OC2CSC2)nn1-c1ncccc1Cl [Compound 98, N-(2-(allylcarbamoyl)-4-chloro-6-methylphenyl)-1-(3-chloropyridin-2-yl)-3-(thietan-3-yloxy)-1H-pyrazole-5-carboxamide] | > 50 | – | – | –
11 | CCCNC(=O)c1c(NC(=O)c2cc(OC3CSC3)nn2-c2ncccc2Cl)c(C)cc2ccnn12 [Compound 108, 6-(1-(3-chloropyridin-2-yl)-3-(thietan-3-yloxy)-1H-pyrazole-5-carboxamido)-5-methyl-N-propylpyrazolo[1,5-a]pyridine-7-carboxamide] | – | – | – | > 70
12 | Cc1cc(Cl)cc(C(=O)NC(C)C)c1NC(=O)c1cc(OC2C[S+]([O-])C2)nn1-c1ncccc1Cl (stereo not drawn) [Compound 117, N-(4-chloro-2-(isopropylcarbamoyl)-6-methylphenyl)-1-(3-chloropyridin-2-yl)-3-((1-oxidothietan-3-yl)oxy)-1H-pyrazole-5-carboxamide] | > 50 | – | – | –
13 | Cc1cc(Cl)cc(C(=O)NC2CC2)c1NC(=O)c1cc(OC2C[S+]([O-])C2)nn1-c1ncccc1Cl (stereo not drawn) [Compound 128, N-(4-chloro-2-(cyclopropylcarbamoyl)-6-methylphenyl)-1-(3-chloropyridin-2-yl)-3-((1-oxidothietan-3-yl)oxy)-1H-pyrazole-5-carboxamide] | > 50 | – | – | –
14 | Cc1cc(Cl)cc(C(=O)NCC2CC2)c1NC(=O)c1cc(OC2C[S+]([O-])C2)nn1-c1ncccc1Cl (stereo not drawn) [Compound 129, N-(4-chloro-2-((cyclopropylmethyl)carbamoyl)-6-methylphenyl)-1-(3-chloropyridin-2-yl)-3-((1-oxidothietan-3-yl)oxy)-1H-pyrazole-5-carboxamide] | > 50 | – | – | –
15 | O=C(NCC(F)(F)F)c1cc(Cl)cc(Cl)c1NC(=O)c1cc(OC2CSC2)nn1-c1ncccc1Cl [Compound 132, 1-(3-chloropyridin-2-yl)-N-(2,4-dichloro-6-((2,2,2-trifluoroethyl)carbamoyl)phenyl)-3-(thietan-3-yloxy)-1H-pyrazole-5-carboxamide] | > 50 | – | – | –
16 | CCNC(=O)c1c(NC(=O)c2cc(OC3CSC3)nn2-c2ncccc2Cl)c(C)cc2ccnn12 [Compound 137, 6-(1-(3-chloropyridin-2-yl)-3-(thietan-3-yloxy)-1H-pyrazole-5-carboxamido)-N-ethyl-5-methylpyrazolo[1,5-a]pyridine-7-carboxamide] | – | – | – | > 70
17 | Cc1cc2ccnn2c(C(=O)NC2CC2)c1NC(=O)c1cc(OC2CSC2)nn1-c1ncccc1Cl [Compound 138, 6-(1-(3-chloropyridin-2-yl)-3-(thietan-3-yloxy)-1H-pyrazole-5-carboxamido)-N-cyclopropyl-5-methylpyrazolo[1,5-a]pyridine-7-carboxamide] | – | – | > 70 | –
18 | Cc1cc2ccnn2c(C(=O)NC(C)C2CC2)c1NC(=O)c1cc(OC2CSC2)nn1-c1ncccc1Cl (stereo not drawn) [Compound 139, 6-(1-(3-chloropyridin-2-yl)-3-(thietan-3-yloxy)-1H-pyrazole-5-carboxamido)-N-(1-cyclopropylethyl)-5-methylpyrazolo[1,5-a]pyridine-7-carboxamide] | – | > 70 | > 70 | –
19 | COCCNC(=O)c1c(NC(=O)c2cc(OC3CSC3)nn2-c2ncccc2Cl)c(C)cc2ccnn12 [Compound 156, 6-(1-(3-chloropyridin-2-yl)-3-(thietan-3-yloxy)-1H-pyrazole-5-carboxamido)-N-(2-methoxyethyl)-5-methylpyrazolo[1,5-a]pyridine-7-carboxamide] | – | > 70 | – | –
